Laboratory results: PubChem BioAssay (NCI)
Values joined by “and” are separate entries in the source; they are usually repeats but may differ in a detail not shown here. Identical values can stand only once.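 Growth conditions: 96-well plates. Treatment: test compound, 48 hours, 5 concentrations. Analysis: linear interpolation between bracketing concentrations; unreached endpoints set to highest concentration. At the GI50, growth is halved. TGI is the concentration that stops growth completely.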

How the values were obtained:
Assay in all cases: NCI tumour cell line growth inhibition, 48 h
[1] = test system: M19-MEL melanoma
[2] = test system: DMS 273 small cell lung
[3] = test system: A549 NSCLC
[4] = test system: DMS 114 small cell lung
[5] = test system: HOP-18 NSCLC
[6] = test system: XF 498 CNS
[7] = test system: KM20L2 colon
[8] = test system: MCF7 breast
[9] = test system: T-47D breast
[10] = test system: HS 578T breast

| Compound | TGI [1] | TGI [2] | TGI [3] | TGI [4] | TGI [5] | TGI [6] | TGI [7] | TGI [8] | GI50 [6] | GI50 [2] | TGI [9] | TGI [10] | GI50 [3] | GI50 [4] | GI50 [5] | GI50 [7] | GI50 [1] |
| --- | --- | --- | --- | --- | --- | --- | --- | --- | --- | --- | --- | --- | --- | --- | --- | --- | --- |
| CC1(C)OC2COC3(CNO)OC(C)(C)OC3C2O1 (configuration not stated) | > 100 µM | > 100 µM | > 100 µM | > 100 µM | > 100 µM | – | – | – | – | – | – | – | – | – | – | – | – |
| C=CCC1[C@@H](C(C)(C)C(C(C)=O)C(=O)C(=O)OC)OC(C(C)(C)C)N1C(=O)OC (some centres not stated) | > 100 µM | – | > 100 µM | – | > 100 µM | > 100 µM | > 100 µM | – | – | – | – | – | – | – | – | – | – |
| CC1(C)CC[C@H](C2=CC(=O)c3c(O)ccc(O)c3C2=O)O1 | – | – | 30 µM and 10 µM | 2.21 µM and 3.14 µM and 0.47 µM | 3.39 µM and 3.15 µM and 0.703 µM | 4.6 µM and 3.89 µM and 1.34 µM | – | 0.739 µM and 0.337 µM | 2.3 µM and 2.36 µM and 0.563 µM | 7.31 µM and 1.32 µM and 0.752 µM | 1.35 µM and 2.63 µM | 6.78 µM and 7.42 µM | 9.2 µM and 3.48 µM and 3.31 µM | 1.63 µM | 1.83 µM and 1.72 µM and 0.265 µM | – | – |
| Cc1cc2c(Br)cc(Br)c(O)c2nc1C(=O)c1ccccc1 | 32.2 µM | 42.3 µM | > 100 µM | 97.7 µM | 70.4 µM | – | 82.5 µM | > 100 µM | – | – | 74.6 µM | > 100 µM | – | – | – | – | – |
| O=C/C(=C(/Cl)c1ccc(O)cc1)c1ccccc1 | 42.1 µM | 48 µM | > 84.6 µM | 31.2 µM | > 31.6 µM | > 45.4 µM | > 59.8 µM | – | – | – | – | – | – | – | – | – | – |
| O=c1ncccn1C1C=C(CO)C(O)C1O (configuration not stated) | – | > 50 µM | > 50 µM | > 50 µM | > 50 µM | > 50 µM | > 50 µM | – | – | – | – | – | – | – | – | – | – |
| Cc1nnc(N/N=C(/C(=O)C(C#N)c2ccccc2)C(C#N)c2ccccc2)n1N (configuration not stated) | 25.2 µM | 34.4 µM | 49.3 µM | 13.4 µM | 28.6 µM | – | > 100 µM | – | – | – | – | – | – | – | – | – | – |
| NC(N)=NS(=O)(=O)c1ccc(NC(=O)c2cccc3c(Nc4ccc(S(N)(=O)=O)cc4)c4ccccc4nc23)cc1 | > 100 µM | > 100 µM | > 100 µM | > 100 µM | > 100 µM | > 100 µM | > 100 µM | – | – | – | – | – | – | – | – | – | – |
| CCCCCCCCCCCCCC(=O)OCC1OC(=O)CC1O (configuration not stated) | – | > 100 µM | > 100 µM | > 100 µM | 67.3 µM | > 100 µM | > 100 µM | – | – | – | – | – | – | – | – | – | – |
| CC(=O)[O-].CC(=O)[O-].CC(=O)[O-].CC(=O)[O-].[Mo+2].[Mo+2] | – | > 100 µM | > 100 µM | – | > 100 µM | – | > 100 µM | – | – | > 100 µM | – | – | > 100 µM | – | > 100 µM | > 100 µM | – |
| CC(=O)OC1COC(n2c(=S)n(-c3ccccc3)c(=O)c3cc(Br)ccc32)C(OC(C)=O)C1OC(C)=O (configuration not stated) | > 100 µM | > 100 µM | > 100 µM | > 100 µM | > 100 µM | 45.2 µM | > 100 µM | – | – | – | – | – | – | – | – | – | – |
| CCOC(=O)C(=O)Nc1ccccc1C(F)(F)F | – | > 100 µM | > 100 µM | – | > 100 µM | > 100 µM | > 100 µM | – | – | – | – | – | – | – | – | – | – |
| CC(CC(=O)Nc1ccc(NC(=O)CC(C)N=NC(N)=S)cc1)N=NC(N)=S (configuration not stated) | > 100 µM | > 100 µM | > 100 µM | > 100 µM | > 100 µM | > 100 µM | > 100 µM | – | – | – | – | – | – | – | – | – | – |
| COc1c(Br)cc(Br)c(OC)c1-c1[nH]c(Br)c(Br)c1Br | 23 µM | 25.1 µM | 19.2 µM | 19.4 µM | 9.05 µM | 14.3 µM | 22.4 µM | – | – | – | – | – | – | – | – | – | – |
| CCN(CC)CC(=O)N1CCc2c([nH]c3ccccc23)C1c1cccnc1 (configuration not stated) | > 100 µM | > 100 µM | > 100 µM | > 100 µM | > 100 µM | > 100 µM | > 100 µM | – | – | – | – | – | – | – | – | – | – |
| CC1(c2ccccc2)CC(c2ccccc2)=NO1 (configuration not stated) | > 100 µM | > 100 µM | > 100 µM | > 100 µM | > 100 µM | – | – | – | – | – | – | – | – | – | – | – | – |
| CC1=C(C(=O)Nc2ccccc2C)C(/C=C/c2ccccc2)C(C(=O)Nc2ccccc2C)=C(C)N1 | > 100 µM | > 100 µM | > 100 µM | – | > 100 µM | > 100 µM | > 100 µM | – | – | – | – | – | – | – | – | – | – |
| Cc1ccc(S(=O)(=O)N/N=C(\c2nc3ccc([N+](=O)[O-])cc3[nH]c2=O)C(O)c2ccccc2Cl)cc1 (configuration not stated) | > 100 µM | > 100 µM | > 100 µM | > 100 µM | > 100 µM | – | > 100 µM | – | – | – | – | – | – | – | – | – | – |
| C[n+]1c2ccccc2cc2c(CNC(CCCN=C(N)N)C(=O)O)cccc21 (configuration not stated) | 2.26 µM and 17 µM | 8.77 µM and 1.53 µM | 14.6 µM | 1.16 µM and 3.36 µM | 15.5 µM | 3.5 µM and 4.02 µM | 12.3 µM | – | 2.46 µM | 0.441 µM | – | – | 4.11 µM | 1.62 µM | – | 0.346 µM | 4.23 µM |
| CC(=O)NNc1nc(C)c(C(=O)NNC(=O)C(=O)Nc2nc3ccc([N+](=O)[O-])cc3s2)s1 | > 100 µM | > 100 µM | > 100 µM | 82.5 µM | – | 75.9 µM | > 100 µM | > 100 µM | – | – | 68.3 µM | > 100 µM | – | – | – | – | – |
| COc1ccc(Nc2nc3ccccc3nc2-c2cccs2)cc1 | – | > 100 µM | > 100 µM | > 100 µM | > 100 µM | > 100 µM | > 100 µM | – | – | – | – | – | – | – | – | – | – |
| C#CCC(N)(CO)C(=O)O (configuration not stated) | > 100 µM | > 100 µM | > 100 µM | > 100 µM | > 100 µM | > 100 µM | – | – | – | – | – | – | – | – | – | – | – |
| CC/C(=N\NS(=O)(=O)c1ccccc1)c1ccccc1 | > 100 µM | > 100 µM | > 100 µM | – | > 100 µM | > 100 µM | > 100 µM | – | – | – | – | – | – | – | – | – | – |
| NC(=O)/C=C/C(=O)O | > 5000 µM | > 5000 µM | > 5000 µM | > 5000 µM | > 5000 µM | – | – | – | – | – | – | – | – | – | – | – | – |
| CC1(Cc2ccccc2)NC(=S)NC1=O (configuration not stated) | > 100 µM | > 100 µM | > 100 µM | > 100 µM | 8.35 µM | – | > 100 µM | – | – | – | – | – | – | – | – | – | – |
| O=c1c(Cl)c(Cl)cnn1CCc1ccncc1 | 30.8 µM | 33.6 µM | > 100 µM | 29 µM | 34.2 µM | 29.6 µM | 36.2 µM | – | – | – | – | – | – | – | – | – | – |
| Cc1ccccc1Nc1nc2c(s1)C(=O)c1ccccc1C2=O | 3.79 µM | 21.4 µM | 27.9 µM | 4.69 µM | 24.9 µM | 29.3 µM | > 65.4 µM | 4.36 µM | – | – | 27.5 µM | – | – | – | – | – | – |
| CC(=O)[CH-]C(C)=O.[CH2-]C.[CH2-]C.[Tl+3] | – | > 100 µM | > 100 µM | > 100 µM | > 100 µM | > 100 µM | > 100 µM | – | > 100 µM | > 100 µM | – | – | > 100 µM | > 100 µM | > 100 µM | > 100 µM | – |
| CNC(SC)=C1C(=O)OC(C)(C)OC1=O | > 100 µM | > 100 µM | > 100 µM | > 100 µM | > 100 µM | > 100 µM | > 100 µM | – | – | – | – | – | – | – | – | – | – |
